Test results published in patent US20040121965A1, “Method of treating resistant tumors” (Wyeth Holdings Corporation, priority 2002, published 2004).

Assays:
KB-3-1 = assay: Cell survival assay (SRB), KB-3-1; format: cell-based, human; settings: Homo sapiens, KB 3-1, KB-3-1 cells (paclitaxel-sensitive parent); read-out: In vitro IC50 (nM) KB-3-1
Procedure, shortened: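 Step 1: add serial compound dilutions to cells in duplicate. Step 2: incubate 3 days. Step 3: fix in 10% TCA for 1 hr at 4 °C, stain with 0.04% SRB for 10 min, wash in 1% acetic acid, solubilise in 10 mM Trizma Base, measure absorbance and derive the 50%-growth-inhibition concentration.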

KB-8-5 (MDR1+) = assay: Cell survival assay (SRB), KB-8-5 (MDR1+); settings: for IC50: Homo sapiens, MDR1, read-out: In vitro IC50 (nM) KB85
KB-V1 (MDR1++) = assay: Cell survival assay (SRB), KB-V1 (MDR1++); settings: for IC50: Homo sapiens, read-out: In vitro IC50 (nM) KBV1

Row | SMILES | IC50 (KB-3-1) | Ratio KB85/KB (KB-8-5 (MDR1+)) | IC50 (KB-8-5 (MDR1+)) | Ratio KBV1/KB (KB-V1 (MDR1++)) | IC50 (KB-V1 (MDR1++))
1 | CCCC/C(=C\[C@@H](NC(=O)[C@@H](NC(=O)[C@@H](NC)C(C)(C)c1ccccc1)C(C)(C)C)C(C)C)C(=O)O [Example 77, (E,4S)-2-Butyl-4-[((2S)-3,3-dimethyl-2-{[(2S)-3-methyl-2-(methylamino)-3-phenylbutanoyl]amino}butanoyl)amino]-5-methyl-2-hexenoic Acid] | 575 nM | 3.0 | 1740 nM | 5.2 | ≥ 3000 nM
2 | CCOC(=O)/C(C)=C/[C@H](C(C)C)N(C)C(=O)[C@@H](NC(=O)[C@@H](NC)C(C)(C)c1ccccc1)C(C)(C)SC [Example 79, Ethyl (E,4S)-2,5-dimethyl-4-{methyl[(2R)-3-methyl-2-{[(2S)-3-methyl-2-(methylamino)-3-phenylbutanoyl]amino}-3-(methylsulfanyl)butanoyl]amino}-2-hexenoate] | 449 nM | 3.2 | 1420 nM | 5.4 | 2440 nM
3 | CN[C@H](C(=O)N[C@H](C(=O)N(C)[C@H](/C=C(\C)C(=O)O)C(C)C)C(C)(C)S(C)(=O)=O)C(C)(C)c1ccccc1 [Example 81, N,β,β-trimethyl-L-phenylalanyl-N^1-[(1S,2E)-3-carboxy-1-isopropyl-2-butenyl]-N^1-methyl-3-(methylsulfonyl)-L-valinamide] | 178 nM | 3.3 | 589 nM | 16.9 | ≥ 3000 nM
4 | CN[C@H](C(=O)N[C@H](C(=O)N(C)[C@H](/C=C(\C)C(=O)O)C(C)C)C(C)(C)SCc1ccc(OC)cc1)C(C)(C)c1ccccc1 [Example 82, N,β,β-trimethyl-L-phenylalanyl-N^1-[(1S,2E)-3-carboxy-1-isopropyl-2-butenyl]-3-[(4-methoxybenzyl)sulfanyl]-N^1-methyl-L-valinamide] | 59 nM | 1.7 | 100 nM | 40.1 | 2360 nM
5 | CN[C@H](C(=O)N[C@H](C(=O)N(C)[C@H](/C=C(\C)C(=O)O)C(C)C)C(C)(C)SCc1ccc(OC)cc1)C(C)(C)c1ccc(OC)cc1 [Example 83, N,O,β,β-tetramethyl-L-tyrosyl-N^1-[(1S,2E)-3-carboxy-1-isopropyl-2-butenyl]-3-[(4-methoxybenzyl)sulfanyl]-N^1-methyl-L-valinamide] | 15.8 nM | 2.8 | 43.7 nM | 132.2 | 2090 nM
6 | CN[C@H](C(=O)N[C@H](C(=O)N(C)[C@H](/C=C(\C)C(=O)O)C(C)C)C(C)(C)SC)C(C)(C)c1ccc(OC)cc1 [Example 84, N,O,β,β-tetramethyl-L-tyrosyl-N^1-[(1S,2E)-3-carboxy-1-isopropyl-2-butenyl]-N^1-methyl-3-(methylsulfanyl)-L-valinamide] | 1.6 nM | 3.2 | 5.1 nM | 188.7 | 302 nM
7 | CN[C@H](C(=O)N[C@H](C(=O)N(C)[C@H](/C=C(\C)C(=O)O)C(C)C)[C@H](C)O)C(C)(C)c1ccccc1 [Example 86, N,β,β-trimethyl-L-phenylalanyl-N^1-[(1S,2E)-3-carboxy-1-isopropyl-2-butenyl]-N^1-methyl-L-allothreoninamide] | 311 nM | 2.2 | 669 nM | 9.7 | ≥ 3000 nM
8 | CN[C@H](C(=O)N[C@H](C(=O)N(C)[C@H](/C=C(\C)C(=O)O)C(C)C)C(C)(C)c1ccc(OC)cc1)C(C)(C)c1ccccc1 [Example 87, N,β,β-trimethyl-L-phenylalanyl-N-[(1S,2E)-3-carboxy-1-isopropyl-2-butenyl]-N,O,β,β-tetramethyl-L-tyrosinamide] | 27.2 nM | 2.1 | 56.3 nM | 72.4 | 1970 nM
9 | CN[C@H](C(=O)N[C@H](C(=O)N(C)[C@H](/C=C(\C)C(=O)O)C(C)C)[C@H](C)OC)C(C)(C)c1ccccc1 [Example 88, N,β,β-trimethyl-L-phenylalanyl-N^1-[(1S,2E)-3-carboxy-1-isopropyl-2-butenyl]-N^1,O-dimethyl-L-allothreoninamide] | 871 nM | 2.0 | 1740 nM | 3.4 | ≥ 3000 nM
10 | CN[C@H](C(=O)N[C@@H](CCc1ccccc1)C(=O)N(C)[C@H](/C=C(\C)C(=O)O)C(C)C)C(C)(C)c1ccccc1 [Example 89, (E ,4S)-2,5-Dimethyl-4-[methyl((2S)-2-{[(2S)-3-methyl-2-(methylamino)-3-phenylbutanoyl]amino}4-phenylbutanoyl)amino]-2-hexenoic Acid] | 180 nM | 1.5 | 274 nM | 16.6 | ≥ 3000 nM
11 | CN[C@H](C(=O)N[C@H](C(=O)N(C)[C@H](/C=C(\C)C(=O)O)C(C)C)C(C)(C)c1ccc(C(=O)c2ccccc2)cc1)C(C)(C)c1ccccc1 [Example 90, N,β,β-trimethyl-L-phenylalanyl-4-benzoyl-N-[(1S,2E)-3-carboxy-1-isopropyl-2-butenyl]-N,β,β-trimethyl-L-phenylalaninamide] | 22.4 nM | 4.3 | 96.9 nM | 133.9 | ≥ 3000 nM
12 | CN[C@H](C(=O)N[C@H](C(=O)N(C)[C@H](/C=C(\C)C(=O)O)C(C)C)C(C)(C)C)C(C)(C)c1ccc(C(=O)c2ccccc2)cc1 [Example 91, 4-benzoyl-N,β,β-trimethyl-L-phenylalanyl-N^1-[(1S,2E)-3-carboxy-1-isopropylbut-2-enyl]-N^1,3-dimethyl-L-valinamide] | 1.7 nM | 4.0 | 6.8 nM | 308.7 | 525 nM
13 | CN[C@H](C(=O)N[C@H](C(=O)N(C)[C@H](/C=C(\C)C(=O)O)CC(C)C)C(C)(C)C)C(C)(C)c1ccccc1 [Example 92, 4-{[3,3-Dimethyl-2-(3-methyl-2-methylamino-3-phenyl-butyrylamino)-butyryl]-methyl-amino}-2,6-dimethyl-hept-2-enoic Acid] | 126 nM | 2.1 | 264 nM | 23.9 | ≥ 3000 nM
14 | CN[C@H](C(=O)N[C@H](C(=O)N[C@H](/C=C(\C)C(=O)O)CC(C)C)C(C)(C)C)C(C)(C)c1ccccc1.O=C(O)C(F)(F)F [Example 93, N,β,β-trimethyl-L-phenylalanyl-N^1-[(1S,2E)-3-carboxy-1-isobutylbut-2-enyl]-3-methyl-L-valinamide Trifluoroacetic Acid] | 85.2 nM | 4.0 | 339 nM | 35.2 | ≥ 3000 nM
15 | CCN(C(=O)[C@@H](NC(=O)[C@@H](NC)C(C)(C)c1ccccc1)C(C)(C)C)[C@H](/C=C(\C)C(=O)O)C(C)C.O=C(O)C(F)(F)F [Example 94, N,β,β-trimethyl-L-phenylalanyl-N^1-[(1S,2E)-3-carboxy-1-isopropylbut-2-enyl]-N^1-ethyl-3-methyl-L-valinamide Trifluoroacetic Acid] | 109 nM | 1.8 | 197 nM | 27.5 | ≥ 3000 nM
16 | CN[C@H](C(=O)N[C@@H](CC(C)C)C(=O)N(C)[C@H](/C=C(\C)C(=O)O)C(C)C)C(C)(C)c1ccccc1.O=C(O)C(F)(F)F [Example 96, N,β,β-trimethyl-L-phenylalanyl-N^1-[(1S,2E)-3-carboxy-1-isopropylbut-2-enyl]-N^1-methyl-L-leucinamide Trifluoroacetic Acid] | 19 nM | 1.6 | 30 nM | 76.1 | 1440 nM
17 | CCC[C@H](NC(=O)[C@@H](NC)C(C)(C)c1ccccc1)C(=O)N(C)[C@H](/C=C(\C)C(=O)O)C(C)C.O=C(O)C(F)(F)F [Example 97, N,β,β-trimethyl-L-phenylalanyl-N^1-[(1S,2E)-3-carboxy-1-isopropylbut-2-enyl]-N^1-methyl-L-norvalinamide Trifluoroacetic Acid] | 15 nM | 1.3 | 19 nM | 38.3 | 575 nM
18 | CNC(C(=O)NC(C(=O)N(C)C(C=C(C)C(=O)O)C(C)C)C(C)(C)C)C(C)c1ccccc1.O=C(O)C(F)(F)F (stereo not shown) [Example 100, 4-{[3,3-Dimethyl-2-(2-methylamino-3-phenyl-butyrylamino)-butyryl]-methyl-amino}-2,5-dimethyl-hex-2-enoic Acid Trifluoroacetic Acid] | 114 nM | 1.7 | 197 nM | 26.2 | ≥ 3000 nM
19 | CN[C@H](C(=O)N[C@H](C(=O)N[C@H](/C=C(\C)C(=O)O)C(C)C)C(C)(C)C)C(C)(C)c1ccccc1.O=C(O)C(F)(F)F [Example 101, N,β,β-trimethyl-L-phenylalanyl-N^1-[(1S,2E)-3-carboxy-1-isopropylbut-2-enyl]-3-methyl-L-valinamide Trifluoroacetic Acid] | 43.1 nM | 3.2 | 139 nM | 69.6 | ≥ 3000 nM
20 | CN[C@H](C(=O)N[C@H](C(=O)N[C@H](/C=C(\C)C(=O)O)C(C)C)C(C)C)C(C)(C)c1ccccc1.O=C(O)C(F)(F)F [Example 102, N,β,β-trimethyl-L-phenylalanyl-N^1-[(1S,2E)-3-carboxy-1-isopropylbut-2-enyl]-L-valinamide Trifluoroacetic Acid] | 371 nM | 1.7 | 618 nM | 8.1 | ≥ 3000 nM
